# Source: patent US12016335B2, “Stabilized low-concentration metsulfuron-methyl liquid composition” (FMC CORPORATION, priority 2013, dated 2024)
# Assay: Chemical stability of metsulfuron-methyl and thifensulfuron-methyl during aging of compositions at 40° C. (HPLC)
# Type: physicochemical
# Procedure: When prepared, the compositions were analyzed by HPLC for metsulfuron-methyl and thifensulfuron-methyl content. The stability of metsulfuron-methyl and thifensulfuron-methyl in the compositions prepared was then determined by aging samples in ovens at 40° C. for 4 and 8 weeks. Storage at 40° C. at 8 weeks simulates two-year storage at ambient temperature. Control samples were stored in a freezer at −6° C. […] At the end of the allotted times, samples were removed from the ovens and analyzed by HPLC for metsulfuron-methyl or thifensulfuron-methyl content. The relative chemical stability was calculated by dividing the assay of the oven-aged sample by that of the control sample analyzed on the same day.
smiles,measurement,value
"COC(=O)c1sccc1S(=O)(=O)NC(=O)Nc1nc(C)nc(OC)n1 [thifensulfuron-methyl, methyl 3-[[[[(4-methoxy-6-methyl-1,3,5-triazin-2-yl)amino]carbonyl]amino]-sulfonyl]-2-thiophenecarboxylate]",stability of the thifensulfuron-methyl component itself,excellent stability
